We go through seven compounds from US9968619B2, “Method of treating triple-negative breast cancer using thienotriazolodiazepine compounds” (ONCOETHIX GMBH, priority 2014, dated 2018).

Experiment [1] deals with mTOR (Homo sapiens, UniProt P42345). The conditions noted are these: cited from earlier work.
Experiment [2] concerns HCC1937. The conditions noted are these: cited from earlier work.
Experiment [3] relates to MDA-MB-231. The conditions noted are these: cited from earlier work.
The test system of experiment [4] is MDA-MB-231 nude mice-derived xenografts. As to the kind of experiment: MDA-MB-231 xenografts in nude mice. Particulars: Compound (1-1) 50 mg/kg BID po; everolimus 2 mg/kg 3 time a week ip; 4 weeks treatment. Type of experiment: in vivo. How it is done:
In vivo assays were performed in 8-week-old female MDA-MB-231 nude mice-derived xenografts. 10×10^6 cells were injected, when tumor volume reached 100 mm^3, mice were randomized to 4 groups (n=9): 1) vehicle; 2) 50 mg/kg Compound (1-1) (BID, po); 3) 2 mg/kg of everolimus (3 time a week, ip); 4) combination Compound (1-1) and everolimus; 4 weeks treatment.
Symbols with • indicate significant differences between treatment vs. vehicle-treated mice (p<0.05). * indicates a significant difference in the tumor mass between the combination treated animals and the two single agent groups (*p<0.05, **p<0.01 and ***p<0.001). Results represent the mean±SEM (during the treatment period, n=9). Variation of animal body weight during treatment is illustrated in FIG. 18B. […] The T/C ratio was 39% after 10 days of combination treatment, with an optimal value of 21% on day 23. Compound (1-1) can be used for the treatment of TNBC, either alone or in combination with mTOR inhibitors.

In experiment [5] the target is FKBP12 (Homo sapiens, UniProt P62942). Particulars: cited from earlier work.
Sequence of FKBP12 (P62942 whole entry, species assumed): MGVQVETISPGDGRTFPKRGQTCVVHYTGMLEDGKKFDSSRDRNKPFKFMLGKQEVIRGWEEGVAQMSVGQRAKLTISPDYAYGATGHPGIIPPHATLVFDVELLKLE
The subject of experiment [6] is PI3K/mTOR. Particulars: cited from earlier work.
Experiment [7] has as its system Akt phosphorylation on T308. Particulars: cited from earlier work.
Experiment [8] concerns Akt phosphorylation on S473. Particulars: cited from earlier work.
The target of experiment [9] is p110β (PI3Kβ) (Homo sapiens, UniProt P42338). Particulars: cited from earlier work.
Sequence of p110β (PI3Kβ) (P42338 whole entry, species assumed): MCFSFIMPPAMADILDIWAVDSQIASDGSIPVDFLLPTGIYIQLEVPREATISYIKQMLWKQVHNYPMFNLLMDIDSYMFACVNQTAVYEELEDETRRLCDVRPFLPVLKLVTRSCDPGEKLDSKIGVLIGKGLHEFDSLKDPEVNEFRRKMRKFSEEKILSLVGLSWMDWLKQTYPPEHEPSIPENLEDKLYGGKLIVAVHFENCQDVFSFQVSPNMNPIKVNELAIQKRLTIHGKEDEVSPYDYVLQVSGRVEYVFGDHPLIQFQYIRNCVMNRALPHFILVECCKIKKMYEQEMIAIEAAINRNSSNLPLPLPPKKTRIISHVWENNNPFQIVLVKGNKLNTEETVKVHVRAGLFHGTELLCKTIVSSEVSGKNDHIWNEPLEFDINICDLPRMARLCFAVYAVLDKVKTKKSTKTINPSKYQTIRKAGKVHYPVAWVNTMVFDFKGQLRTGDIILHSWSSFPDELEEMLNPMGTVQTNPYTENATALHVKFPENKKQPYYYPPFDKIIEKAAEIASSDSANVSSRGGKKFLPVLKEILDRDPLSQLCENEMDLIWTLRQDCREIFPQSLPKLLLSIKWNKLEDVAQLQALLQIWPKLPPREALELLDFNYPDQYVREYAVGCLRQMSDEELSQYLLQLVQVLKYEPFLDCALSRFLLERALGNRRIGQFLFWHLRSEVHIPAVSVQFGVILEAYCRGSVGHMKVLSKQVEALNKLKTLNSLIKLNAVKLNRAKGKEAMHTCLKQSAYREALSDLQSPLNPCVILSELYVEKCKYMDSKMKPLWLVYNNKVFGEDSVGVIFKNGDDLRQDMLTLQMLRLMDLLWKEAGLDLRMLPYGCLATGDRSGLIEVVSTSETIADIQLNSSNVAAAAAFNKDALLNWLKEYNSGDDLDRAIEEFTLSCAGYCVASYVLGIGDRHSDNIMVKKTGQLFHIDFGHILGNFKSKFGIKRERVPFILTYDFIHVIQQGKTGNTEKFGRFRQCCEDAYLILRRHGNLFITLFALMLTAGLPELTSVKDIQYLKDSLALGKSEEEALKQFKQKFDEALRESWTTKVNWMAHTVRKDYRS
Sequence of p110β (PI3Kβ) (P27986 whole entry partner, species assumed): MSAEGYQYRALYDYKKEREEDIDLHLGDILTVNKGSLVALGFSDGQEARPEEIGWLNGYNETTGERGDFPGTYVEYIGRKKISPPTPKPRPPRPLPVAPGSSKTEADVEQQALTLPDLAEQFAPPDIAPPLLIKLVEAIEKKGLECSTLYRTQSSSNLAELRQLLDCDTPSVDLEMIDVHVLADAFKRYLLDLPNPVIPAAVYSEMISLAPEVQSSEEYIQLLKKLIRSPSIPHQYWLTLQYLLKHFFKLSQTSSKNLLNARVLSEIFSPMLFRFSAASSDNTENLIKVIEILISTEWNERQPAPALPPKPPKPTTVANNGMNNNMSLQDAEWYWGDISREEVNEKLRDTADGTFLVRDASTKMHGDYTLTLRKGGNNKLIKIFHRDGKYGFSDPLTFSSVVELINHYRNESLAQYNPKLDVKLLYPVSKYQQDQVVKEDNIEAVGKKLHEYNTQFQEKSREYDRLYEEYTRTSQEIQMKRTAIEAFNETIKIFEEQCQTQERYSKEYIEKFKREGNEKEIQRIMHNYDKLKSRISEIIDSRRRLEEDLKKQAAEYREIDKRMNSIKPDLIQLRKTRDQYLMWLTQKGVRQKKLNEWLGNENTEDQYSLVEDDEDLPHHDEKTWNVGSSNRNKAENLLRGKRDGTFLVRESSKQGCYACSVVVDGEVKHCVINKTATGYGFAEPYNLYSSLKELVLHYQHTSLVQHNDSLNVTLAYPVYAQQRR
Experiment [10] concerns the target p110γ (PI3Kγ) (Homo sapiens, UniProt P48736). The conditions noted are these: cited from earlier work.

One may read the IC50 as the midpoint of a concentration-inhibition curve. Broadly, the Ki is the equilibrium dissociation constant of an inhibitor or competing ligand from its target.

Sequence of p110γ (PI3Kγ) (P48736 whole entry, species assumed): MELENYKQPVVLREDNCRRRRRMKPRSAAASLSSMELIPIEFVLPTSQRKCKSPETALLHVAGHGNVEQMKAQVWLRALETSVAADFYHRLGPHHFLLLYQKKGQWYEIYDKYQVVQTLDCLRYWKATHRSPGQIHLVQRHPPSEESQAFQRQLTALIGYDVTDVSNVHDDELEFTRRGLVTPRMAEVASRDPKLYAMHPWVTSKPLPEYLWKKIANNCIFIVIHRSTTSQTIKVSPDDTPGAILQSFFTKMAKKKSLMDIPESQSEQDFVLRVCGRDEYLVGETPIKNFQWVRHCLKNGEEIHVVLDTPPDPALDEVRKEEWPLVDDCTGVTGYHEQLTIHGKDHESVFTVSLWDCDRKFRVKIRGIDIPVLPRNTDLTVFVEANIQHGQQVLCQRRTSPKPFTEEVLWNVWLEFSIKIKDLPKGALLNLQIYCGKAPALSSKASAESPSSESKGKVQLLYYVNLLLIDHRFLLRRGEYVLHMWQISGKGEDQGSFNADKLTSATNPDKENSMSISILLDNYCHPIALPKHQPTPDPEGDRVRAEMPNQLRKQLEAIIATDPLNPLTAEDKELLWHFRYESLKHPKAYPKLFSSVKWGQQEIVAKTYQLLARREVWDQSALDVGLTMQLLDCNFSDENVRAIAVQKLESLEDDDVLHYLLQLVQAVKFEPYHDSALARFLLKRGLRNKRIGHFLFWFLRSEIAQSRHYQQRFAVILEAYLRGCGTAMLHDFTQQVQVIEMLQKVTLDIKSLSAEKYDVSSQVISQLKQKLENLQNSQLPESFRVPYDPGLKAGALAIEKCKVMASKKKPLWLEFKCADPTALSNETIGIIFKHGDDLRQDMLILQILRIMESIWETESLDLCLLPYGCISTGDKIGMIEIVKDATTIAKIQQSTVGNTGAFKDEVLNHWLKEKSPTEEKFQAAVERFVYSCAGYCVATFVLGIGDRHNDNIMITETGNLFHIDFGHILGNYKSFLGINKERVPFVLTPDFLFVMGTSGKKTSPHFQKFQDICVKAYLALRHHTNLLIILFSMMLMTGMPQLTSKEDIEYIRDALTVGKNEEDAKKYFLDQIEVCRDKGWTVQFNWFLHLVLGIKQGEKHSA

Consider `CO[C@H]1CC2CC[C@@H](C)[C@@](O)(O2)C(=O)C(=O)N2CCCC[C@H]2C(=O)O[C@H]([C@H](C)C[C@@H]2CCC(OP(C)(C)=O)[C@H](OC)C2)CC(=O)[C@H](C)/C=C(\C)[C@@H](O)[C@@H](OC)C(=O)[C@H](C)C[C@H](C)/C=C/C=C/C=C/1C` (some centres unmarked) [Deforolimus, 42-(Dimethylphosphinate) rapamycin], for which, in experiment [1], the IC50 was 0.2 nM.

`CC(=O)O[C@@]12CO[C@@H]1C[C@H](O)[C@@]1(C)C(=O)[C@H](O)C3=C(C)[C@@H](OC(=O)[C@H](O)[C@@H](NC(=O)OC(C)(C)C)c4ccccc4)C[C@@](O)([C@@H](OC(=O)c4ccccc4)[C@H]21)C3(C)C` [Docetaxel]: the IC50 in experiment [2] is 7.2 nM; in experiment [3] it was 3 nM.

As for `CO[C@H]1C[C@@H]2CC[C@@H](C)[C@@](O)(O2)C(=O)C(=O)N2CCCC[C@H]2C(=O)O[C@H]([C@H](C)C[C@@H]2CC[C@@H](OCCO)[C@H](OC)C2)CC(=O)[C@H](C)/C=C(\C)[C@@H](O)[C@@H](OC)C(=O)[C@H](C)C[C@H](C)/C=C/C=C/C=C/1C` [Everolimus, reference compound], in experiment [4], the “tumor mass with respect to vehicle-treated mice” value was “not active”. For the same compound, the IC50 in experiment [5] was 1.6 to 2.4 nM.

For `COc1ccc(-c2ccc3ncc4c(c3c2)n(-c2ccc(N3CCNCC3)c(C(F)(F)F)c2)c(=O)n4C)cn1` [NVP-BGT226], the IC50 in experiment [6] is 1 nM.

Turning to `COc1ccc(-c2cc3c(C)nc(N)nc3n([C@H]3CC[C@H](OCCO)CC3)c2=O)cn1` [PF-04691502], the IC50 in [7] was 7.5 nM; in experiment [8], 3.8 nM.

With `COc1cc(Nc2nc3ccccc3nc2NS(=O)(=O)c2ccc(NC(=O)c3ccc(C)c(OC)c3)cc2)cc(OC)c1` [XL765], the IC50 in experiment [1] was 157 nM.

On to GSK2126458, for which the Ki was 0.13 nM in [9] and 0.024 nM in [10].
